Data: patent US5294725A, “Scopularin” (E. R. Squibb & Sons, Inc., priority 1989, dated 1994)
Converted amounts (≈) assume the structure as drawn.

Key:
lanosterol demethylase [1] = molecular target: T1, lanosterol demethylase (Candida albicans, UniProt P10613); assay: Radiolabeled metabolic assay of lanosterol demethylase inhibition (14C-acetate, lanosterol accumulation); type: cell-based; conditions: Candida albicans SC5314, 1 hour, 30°, TLC autoradiography
T1 construct: endogenous in cells; host or cells: Candida albicans SC5314
T1 sequence (P10613 whole entry): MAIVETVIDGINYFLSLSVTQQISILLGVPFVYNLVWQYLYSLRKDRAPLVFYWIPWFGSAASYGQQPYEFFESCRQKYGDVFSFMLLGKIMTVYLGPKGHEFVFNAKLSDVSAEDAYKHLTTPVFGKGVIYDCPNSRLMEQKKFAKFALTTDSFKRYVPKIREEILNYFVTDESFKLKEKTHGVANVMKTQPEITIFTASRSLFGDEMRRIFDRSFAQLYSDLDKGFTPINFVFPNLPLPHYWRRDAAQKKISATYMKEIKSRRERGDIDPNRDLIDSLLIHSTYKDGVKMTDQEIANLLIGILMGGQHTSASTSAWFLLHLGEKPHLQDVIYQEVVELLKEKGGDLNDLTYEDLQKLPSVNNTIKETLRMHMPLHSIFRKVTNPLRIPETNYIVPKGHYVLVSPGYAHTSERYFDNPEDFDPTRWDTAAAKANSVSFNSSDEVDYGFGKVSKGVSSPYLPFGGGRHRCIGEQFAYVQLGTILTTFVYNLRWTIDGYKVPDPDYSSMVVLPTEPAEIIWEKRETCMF
Description: (§1) The inhibition of lanosterol demethylase was determined by two methods: the spectrophotometric carbon monoxide binding assay of Omura and Sato (J. Biol. Chem. 239:2370-2378, 1964) and by a radiolabeled metabolic assay.
The ability of scopularin and its alcohol to inhibit the lanosterol demethylase of Candida albicans can also be visualized by a metabolic assay. Candida albicans SC5314, was grown overnight at 30° with shaking in the same medium as that used above. Cells were harvested by centrifugation and resuspended in water to give an optical density of 0.3 at 660 nm. 750 μl of this cell suspension, 300 μl of a medium containing 0.35 g Difco yeast nitrogen base without amino acids, 1 g glucose and distilled water to 10 ml, 100 μl of test material and distilled water were combined to give a final volume of 1.425 ml. This was incubated for 15 minutes at 30° C. with shaking, then 3 μCi ^14 C-acetate was added and continued to incubate for 1 hour. Cells were harvested by centrifugation and extracted with 2×0.5 ml methanol; centrifuged, decanted supernate and repeated the extraction with […] methanol-benzene (1:1). Centrifuged, decanted; combined supernates, dried and resuspended in 100 μl chloroform-methanol (1:1). The aliquots were spotted onto silica gel 60 (Merck) plates and developed chromatographically in a solvent containing dichloromethane-acetone (60:1). […]

lanosterol demethylase [2] = molecular target: T1, lanosterol demethylase; assay: Spectrophotometric carbon monoxide binding assay (Omura and Sato); conditions: Candida albicans SGY677, read-out: 50% inhibition of carbon monoxide binding
Description: as §1
Cells of Candida albicans, SGY677, were grown overnight without shaking at 30° C. in a medium consisting of yeast extract 1% , peptone 2%, glucose 2% and distilled water. Cells were harvested by centrifugation and resuspended in 0.65M mannitol to an optical density at 600 nm of 2.5. At this density 1 ml of cells was equal to 6.7 mg constant dry weight (105° C. for 18 hours).

Candida krusei = assay: Agar dilution MIC assay; type: cell-based; conditions: Pichia kudriavzevii, SC2967, 18 h
Description: (§2) The following methodology was used to determine the miniumum inhibitory concentration (hereinafter referred to as MIC) of scopularin.
(§3) The aerobic test organisms were grown in approximately 15-20 ml of Antibiotic Assay Broth (Difco) by inoculating (in tubes) the broth with a loopful of the organism from a BHI (Difco) agar slant. The inoculated tubes were incubated at 37° C. for 18 to 24 hours. These cultures are assumed to contain 10^7 colony forming units (CFU) per ml and the cultures were diluted 1:100 to give a final inoculum level of 10^5 CFU dilutions were made with Yeast Beef Broth (Difco).
(§4) Scopularin was dissolved in an appropriate diluent at a concentration of 1,000 μg/ml. Two-fold dilutions were made in Yeast Beef Broth (Difco), resulting in a range from 1000 μg/ml to 0.5 μg/ml. 1.5 ml of each dilution was placed into individual petri dishes to which 13.5 ml of K-10 agar was added. The composition of K-10 agar is:
(§5) The final drug concentration in the agar ranged from 100 μg/ml to 0.05 μg/ml. Organism growth control plates containing agar only were prepared and inoculated before and after the test plates. The organisms were applied to the agar surface of each plate with a Denyl Multipoint Inoculator (which delivers approximately 0.001 ml of each organism) resulting in a final inoculum of 10^4 CFU on the agar surface.
(§6) The plates were incubated at 37° C. for 18 hours and the MICs determined. The MIC is the lowest concentration of compound inhibiting growth of the organism.

Candida albicans = assay: Agar dilution MIC assay; type: cell-based
Description: as §2, §3, §4, §5, §6

Row | SMILES | concentration causing accumulation of lanosterol, consistent with inhibition of lanosterol demethylase (lanosterol demethylase [1]) | IC50 (lanosterol demethylase [2]) | MIC (Candida krusei) | MIC (Candida albicans; SC12, 18 h) | MIC (Candida albicans; SC14, 18 h)
1 | CCCC=CC=CC=C(C)[C@H]1OC[C@@H](C)[C@@H](OC)[C@@H]1O (relative stereo) [alcohol] | 14 µM | 14 µM | – | – | –
2 | CCC/C=C/C=C/C=C(\C)[C@H]1OC[C@@H](C)[C@@H](OC)[C@@H]1OC(=O)CN (relative stereo) [Scopularin, (2α, 3β, 4α, 5α)-Tetrahydro-4-methoxy-5-methyl-2-(1-methyl-1,3,5-nonatrienyl)-2H-pyran-3-ol, amino-acetate ester] | 360 µM | – | 0.4 µg/mL (≈ 1.19 µM) | 100 µg/mL (≈ 296 µM) | 50 µg/mL (≈ 148 µM)
